# What was measured:
# MIA PaCa-2 = assay: Antiproliferative activity against human MIA PaCa-2 cells assessed as cell growth inhibition by propidium iodide staining based fluorescence assay; assay type: functional
# HT-29 = assay: Antiproliferative activity against human HT-29 cells assessed as cell growth inhibition by propidium iodide staining based fluorescence assay; assay type: functional
# [1] = In vivo inhibition of VEGFR2 in Swiss albino mouse implanted with mouse Ehrlich cells incubated for 24 hrs by immunohistochemical staining based analysis relative to control; assay type: functional
# HCT-116 [2] = assay: Cytotoxicity against human HCT-116 cells assessed as cell growth inhibition measured after 48 hrs by SRB assay; assay type: functional, cell-based; settings: HCT-116, 48 h
# [3] = molecular target: Vascular endothelial growth factor receptor 3 (Homo sapiens) (UniProt P35916); assay: Inhibition of VEGFR3 (unknown origin) at 10 uM by ELISA relative to control
# Vascular endothelial growth factor receptor 3 (Homo sapiens), sequence (P35916 whole entry): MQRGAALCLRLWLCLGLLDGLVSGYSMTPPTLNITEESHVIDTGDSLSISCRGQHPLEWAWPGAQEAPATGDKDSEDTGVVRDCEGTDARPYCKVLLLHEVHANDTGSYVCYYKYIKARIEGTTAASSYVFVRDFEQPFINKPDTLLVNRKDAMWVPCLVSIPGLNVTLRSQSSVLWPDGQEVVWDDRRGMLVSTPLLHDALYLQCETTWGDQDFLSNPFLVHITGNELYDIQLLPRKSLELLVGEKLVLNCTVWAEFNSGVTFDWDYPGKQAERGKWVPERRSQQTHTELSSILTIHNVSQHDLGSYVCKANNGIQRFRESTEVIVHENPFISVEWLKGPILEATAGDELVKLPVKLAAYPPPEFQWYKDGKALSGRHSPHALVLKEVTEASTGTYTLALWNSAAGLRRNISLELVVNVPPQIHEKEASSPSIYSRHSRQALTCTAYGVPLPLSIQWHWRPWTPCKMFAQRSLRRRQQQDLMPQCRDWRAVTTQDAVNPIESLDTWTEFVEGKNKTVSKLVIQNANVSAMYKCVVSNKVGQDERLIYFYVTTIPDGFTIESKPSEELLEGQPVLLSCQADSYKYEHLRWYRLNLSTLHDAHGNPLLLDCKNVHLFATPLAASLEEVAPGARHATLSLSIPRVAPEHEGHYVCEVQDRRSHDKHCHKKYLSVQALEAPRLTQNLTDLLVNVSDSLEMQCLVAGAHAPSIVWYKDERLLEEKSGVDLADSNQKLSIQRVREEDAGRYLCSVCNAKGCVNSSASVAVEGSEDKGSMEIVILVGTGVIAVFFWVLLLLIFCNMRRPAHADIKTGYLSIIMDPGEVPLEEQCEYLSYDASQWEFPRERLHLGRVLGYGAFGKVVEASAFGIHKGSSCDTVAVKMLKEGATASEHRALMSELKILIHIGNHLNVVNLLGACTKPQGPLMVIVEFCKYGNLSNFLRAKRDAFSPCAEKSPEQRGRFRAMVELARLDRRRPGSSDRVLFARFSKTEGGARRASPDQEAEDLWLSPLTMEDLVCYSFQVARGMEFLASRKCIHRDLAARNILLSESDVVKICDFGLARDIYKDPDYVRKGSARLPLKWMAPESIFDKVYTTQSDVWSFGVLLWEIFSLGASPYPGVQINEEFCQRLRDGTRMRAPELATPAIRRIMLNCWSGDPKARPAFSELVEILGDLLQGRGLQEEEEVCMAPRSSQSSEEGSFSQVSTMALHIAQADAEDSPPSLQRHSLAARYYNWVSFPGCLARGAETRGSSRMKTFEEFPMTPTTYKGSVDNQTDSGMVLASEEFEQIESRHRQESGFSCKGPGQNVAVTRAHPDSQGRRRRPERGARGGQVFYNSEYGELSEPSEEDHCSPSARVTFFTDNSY
# MCF7 [4] = assay: Antiproliferative activity against human MCF7 cells assessed as cell growth inhibition incubated for 48 hrs by MTT assay; assay type: functional, cell-based; settings: MCF7, 48 h
# HepG2 [5] = assay: Antiproliferative activity against human HepG2 cells assessed as cell growth inhibition incubated for 48 hrs by MTT assay; assay type: functional, cell-based; settings: HepG2, 48 h
# [6] = molecular target: Poly [ADP-ribose] polymerase 1 (Homo sapiens, UniProt P09874); assay: Displacement of [125I]KX1 from PARP1 in human OVCAR-8 cells incubated for 1 hr by wizard gamma counter analysis; assay type: cell-based
# Poly [ADP-ribose] polymerase 1, sequence (P09874 whole entry): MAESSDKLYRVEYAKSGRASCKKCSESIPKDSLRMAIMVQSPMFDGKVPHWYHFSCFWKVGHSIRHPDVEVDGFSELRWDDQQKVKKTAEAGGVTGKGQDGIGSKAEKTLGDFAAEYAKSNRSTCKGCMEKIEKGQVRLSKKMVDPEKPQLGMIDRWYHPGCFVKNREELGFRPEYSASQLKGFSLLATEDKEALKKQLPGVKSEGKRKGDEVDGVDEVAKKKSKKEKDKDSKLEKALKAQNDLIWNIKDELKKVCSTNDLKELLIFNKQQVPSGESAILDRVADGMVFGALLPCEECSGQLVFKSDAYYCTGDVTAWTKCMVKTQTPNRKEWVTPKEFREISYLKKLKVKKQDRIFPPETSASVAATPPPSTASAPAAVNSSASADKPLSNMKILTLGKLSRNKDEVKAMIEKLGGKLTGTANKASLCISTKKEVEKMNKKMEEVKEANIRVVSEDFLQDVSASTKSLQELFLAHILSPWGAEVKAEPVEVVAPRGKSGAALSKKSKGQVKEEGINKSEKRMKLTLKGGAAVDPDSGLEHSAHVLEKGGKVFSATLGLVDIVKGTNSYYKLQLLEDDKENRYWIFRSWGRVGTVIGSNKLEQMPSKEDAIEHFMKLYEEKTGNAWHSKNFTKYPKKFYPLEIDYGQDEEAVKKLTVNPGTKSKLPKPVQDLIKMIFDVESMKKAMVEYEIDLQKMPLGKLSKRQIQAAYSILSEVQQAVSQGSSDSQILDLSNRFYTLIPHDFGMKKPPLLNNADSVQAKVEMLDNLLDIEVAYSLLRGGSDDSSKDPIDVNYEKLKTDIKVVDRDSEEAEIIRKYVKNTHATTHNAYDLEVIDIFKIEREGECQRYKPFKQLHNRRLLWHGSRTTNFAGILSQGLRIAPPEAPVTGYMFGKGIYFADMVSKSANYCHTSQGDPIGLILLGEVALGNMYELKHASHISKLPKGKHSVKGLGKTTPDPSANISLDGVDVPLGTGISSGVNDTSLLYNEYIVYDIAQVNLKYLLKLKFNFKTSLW
# HCT-116 [7] = assay: Cytotoxicity against human HCT-116 cells assessed as cell growth inhibition measured after 72 hrs by MTT assay; assay type: functional, cell-based; settings: HCT-116, 72 h
# SK-MEL = assay: Cytotoxicity against human SK-MEL cells assessed as cell growth inhibition; assay type: functional, cell-based
# KB = assay: Cytotoxicity against human KB cells assessed as cell growth inhibition; assay type: functional, cell-based
# A549 [8] = assay: Potency index, ratio of Sorafenib IC50 to compound IC50 for antiproliferative activity against human A549 cells assessed as cell growth inhibition measured after 48 hrs by MTT assay; assay type: functional
# A549 [9] = assay: Antiproliferative activity against human A549 cells assessed as cell growth inhibition measured after 48 hrs by MTT assay; assay type: functional, cell-based; settings: A549, 48 h
# [10] = molecular target: T1, Vascular endothelial growth factor receptor 2 (Homo sapiens, UniProt P35968); assay: Inhibition of VEGFR2 (unknown origin) using ULight-4E-BP1 peptide as substrate incubated for 1 hr in presence of ATP by fluorescence based analysis
# T1 sequence (P35968 whole entry): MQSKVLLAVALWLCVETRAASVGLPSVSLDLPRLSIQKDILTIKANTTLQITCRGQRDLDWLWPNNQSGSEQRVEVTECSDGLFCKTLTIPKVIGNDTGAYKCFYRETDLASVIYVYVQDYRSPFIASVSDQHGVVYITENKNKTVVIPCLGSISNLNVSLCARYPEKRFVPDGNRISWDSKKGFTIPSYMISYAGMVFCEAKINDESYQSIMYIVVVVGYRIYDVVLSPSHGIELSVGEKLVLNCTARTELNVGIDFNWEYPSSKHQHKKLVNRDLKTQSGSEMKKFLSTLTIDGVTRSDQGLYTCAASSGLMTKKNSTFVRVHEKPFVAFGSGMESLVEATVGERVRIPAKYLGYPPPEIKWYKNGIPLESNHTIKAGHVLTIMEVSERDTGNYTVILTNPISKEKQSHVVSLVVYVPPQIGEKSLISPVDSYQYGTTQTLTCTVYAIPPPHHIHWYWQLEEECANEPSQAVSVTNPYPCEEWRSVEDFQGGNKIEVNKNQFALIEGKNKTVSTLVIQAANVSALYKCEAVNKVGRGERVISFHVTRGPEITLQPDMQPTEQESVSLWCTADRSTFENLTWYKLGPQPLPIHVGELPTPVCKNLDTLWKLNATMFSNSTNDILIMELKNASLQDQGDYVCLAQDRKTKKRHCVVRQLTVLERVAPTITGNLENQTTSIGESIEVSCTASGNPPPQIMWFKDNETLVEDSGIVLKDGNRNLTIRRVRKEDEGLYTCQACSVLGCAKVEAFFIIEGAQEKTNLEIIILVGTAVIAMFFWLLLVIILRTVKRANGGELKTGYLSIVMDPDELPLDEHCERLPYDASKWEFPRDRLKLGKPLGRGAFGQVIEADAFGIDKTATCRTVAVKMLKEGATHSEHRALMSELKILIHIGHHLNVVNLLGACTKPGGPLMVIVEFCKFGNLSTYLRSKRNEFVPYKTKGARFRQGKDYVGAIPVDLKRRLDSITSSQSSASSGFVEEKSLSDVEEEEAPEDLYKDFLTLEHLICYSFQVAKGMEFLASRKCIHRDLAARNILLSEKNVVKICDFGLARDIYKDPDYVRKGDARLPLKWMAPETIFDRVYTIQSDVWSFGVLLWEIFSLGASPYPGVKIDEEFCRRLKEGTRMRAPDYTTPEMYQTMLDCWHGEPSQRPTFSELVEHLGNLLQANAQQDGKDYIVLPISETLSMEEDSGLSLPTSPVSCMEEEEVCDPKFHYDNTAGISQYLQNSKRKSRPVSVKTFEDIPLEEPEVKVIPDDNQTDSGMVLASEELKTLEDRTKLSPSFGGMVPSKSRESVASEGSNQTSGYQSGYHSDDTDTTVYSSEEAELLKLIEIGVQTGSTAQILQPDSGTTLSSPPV
# ECa-109 cell line = assay: Antiproliferative activity against human EC109 cells assessed as inhibition of cell growth; assay type: functional, cell-based; settings: read-out: IC50
# MCF7 [11] = assay: Cytotoxicity against human MCF7 cells assessed as cell growth inhibition measured after 48 hrs by MTT assay; assay type: functional, cell-based; settings: MCF7, 48 h
# P815 = assay: Cytotoxicity against mouse P815 cells assessed as cell growth inhibition measured after 48 hrs by MTT assay; assay type: functional, cell-based; settings: P815, 48 h
# MCF7 [12] = assay: Antiproliferative activity against human MCF7 cells assessed as cell growth inhibition; assay type: functional, cell-based
# MCF-12A = assay: Antiproliferative activity against human MCF-12A cells assessed as cell growth inhibition; assay type: functional, cell-based
# [13] = Inhibition of tyrosine kinase (unknown origin); design: species or system Homo sapiens
# Hs746T = assay: Antiproliferative activity against human Hs746T cells assessed as cell growth inhibition measured after 72 hrs by WST-1 assay; assay type: functional, cell-based
# [14] = molecular target: T2, Hepatocyte growth factor receptor (Homo sapiens, UniProt P08581); assay: Inhibition of human recombinant c-MET in presence of ATP by HTRF assay
# T2 sequence (P08581 whole entry): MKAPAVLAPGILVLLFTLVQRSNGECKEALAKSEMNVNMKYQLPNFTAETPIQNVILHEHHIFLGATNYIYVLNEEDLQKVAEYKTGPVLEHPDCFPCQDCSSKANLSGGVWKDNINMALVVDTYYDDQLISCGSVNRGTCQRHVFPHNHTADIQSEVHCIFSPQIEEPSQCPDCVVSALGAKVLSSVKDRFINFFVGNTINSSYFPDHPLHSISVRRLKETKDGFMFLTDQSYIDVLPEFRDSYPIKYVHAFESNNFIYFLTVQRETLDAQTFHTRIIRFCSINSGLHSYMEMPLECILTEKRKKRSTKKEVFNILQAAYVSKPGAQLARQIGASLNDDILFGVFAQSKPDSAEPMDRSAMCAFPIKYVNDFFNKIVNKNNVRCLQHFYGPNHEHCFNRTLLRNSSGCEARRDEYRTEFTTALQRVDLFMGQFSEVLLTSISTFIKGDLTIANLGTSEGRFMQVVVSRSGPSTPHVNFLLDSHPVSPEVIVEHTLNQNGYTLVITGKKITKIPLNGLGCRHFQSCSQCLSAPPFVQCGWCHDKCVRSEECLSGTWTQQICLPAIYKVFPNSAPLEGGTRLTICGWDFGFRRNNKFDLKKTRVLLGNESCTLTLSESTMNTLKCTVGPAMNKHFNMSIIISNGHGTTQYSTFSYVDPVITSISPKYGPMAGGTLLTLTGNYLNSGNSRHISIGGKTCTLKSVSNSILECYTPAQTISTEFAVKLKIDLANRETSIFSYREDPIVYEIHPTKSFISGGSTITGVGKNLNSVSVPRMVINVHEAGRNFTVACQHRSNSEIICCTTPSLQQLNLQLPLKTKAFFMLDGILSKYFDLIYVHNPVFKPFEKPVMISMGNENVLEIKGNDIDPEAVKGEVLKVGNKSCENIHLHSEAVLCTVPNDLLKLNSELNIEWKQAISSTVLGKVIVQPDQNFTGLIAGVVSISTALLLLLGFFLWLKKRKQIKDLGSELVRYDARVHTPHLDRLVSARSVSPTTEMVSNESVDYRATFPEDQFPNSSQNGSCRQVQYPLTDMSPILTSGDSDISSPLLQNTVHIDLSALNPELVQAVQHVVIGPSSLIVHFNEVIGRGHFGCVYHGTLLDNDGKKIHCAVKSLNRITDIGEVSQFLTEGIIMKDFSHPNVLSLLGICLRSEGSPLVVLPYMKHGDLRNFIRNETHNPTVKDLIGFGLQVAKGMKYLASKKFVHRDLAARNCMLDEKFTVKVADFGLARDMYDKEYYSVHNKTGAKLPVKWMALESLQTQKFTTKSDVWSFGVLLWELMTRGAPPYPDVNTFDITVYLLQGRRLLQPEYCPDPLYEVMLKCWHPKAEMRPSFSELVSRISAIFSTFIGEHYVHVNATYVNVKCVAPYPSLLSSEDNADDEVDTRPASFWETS
# MDA-MB-231 = assay: Antiproliferative activity against human MDA-MB-231 cells assessed as cell growth inhibition measured after 48 hrs by WST-1 assay; assay type: functional, cell-based; settings: MDA-MB-231, 48 h
# MDA-MB-468 = assay: Cytotoxicity against human MDA-MB-468 cells assessed as cell growth reduction measured after 48 hrs by MTT assay; assay type: functional, cell-based; settings: MDA-MB-468, 48 h
# MCF7 [15] = assay: Antiproliferative activity against human MCF7 assessed as cell growth inhibition measured after 72 hrs by CCK-8 assay; assay type: functional, cell-based; settings: MCF7, 72 h
# Hep 3B2 [16] = assay: Antiproliferative activity against human Hep3B assessed as cell growth inhibition measured after 72 hrs by CCK-8 assay; assay type: functional, cell-based
# MCF7 [17] = assay: Induction of apoptosis in human MCF7 cells assessed as early apoptotic cells incubated for 24 hrs by annexin-V/FITC and propidium iodide staining based flow cytometry analysis; assay type: functional
# Hep 3B2 [18] = assay: Induction of apoptosis in human Hep3B cells assessed as early apoptotic cells incubated for 24 hrs by annexin-V/FITC and propidium iodide staining based flow cytometry analysis; assay type: functional
# Homo sapiens = species: Homo sapiens; assay: Inhibition of WNT (unknown origin) at 10 uM measured after 24 hrs by TOPFlash reporter gene assay
# [19] = molecular target: T2, Hepatocyte growth factor receptor; assay: Inhibition of MET (unknown origin) at 10 uM incubated for 60 mins by spectrophotometric analysis relative to control
# MCF7 [20] = assay: Cytotoxicity against human MCF7 cells assessed as cell growth inhibition by colorimetric method; assay type: functional, cell-based
# PC-3 = assay: Cytotoxicity against human PC-3 cells assessed as cell growth inhibition by MTT assay; assay type: functional, cell-based
# HepG2 [21] = assay: Cytotoxicity against human HepG2 cells assessed as cell growth inhibition after 48 hrs by SRB assay; assay type: functional, cell-based; settings: HepG2, 48 h
# [22] = molecular target: T1, Vascular endothelial growth factor receptor 2; assay: Binding affinity to VEGFR2 (unknown origin) at 10 uM using ULight-4E-BP1 peptide as substrate incubated for 1 hr in presence of ATP by fluorescence based analysis relative to control
smiles,measurement,setting,value
COc1nc2ccc(C)cc2cc1Cc1cc(-c2ccccc2)n[nH]c1=O,IC50,MIA PaCa-2,2.2 µM
same,IC50,HT-29,4.5 µM
N=C(N)NS(=O)(=O)c1ccc(Nc2ccc(Nc3cccc(NC(=O)CCCl)c3)nn2)cc1,inhibition (INH),[1],10%
same,IC50,HCT-116 [2],39 µM
same,inhibition,[3],89.6%
COc1ccc(-c2cc(Cc3ccccc3O)c(=O)[nH]n2)cc1,IC50,MCF7 [4],> 37 µM
same,IC50,HepG2 [5],26.4 µM
COC1CCN(C(=O)c2cc(Cc3n[nH]c(=O)c4ccccc34)ccc2F)CC1 [AZD2461],IC50,[6],0.0028 µM
COc1cccc(NC(=O)Cc2ccc(-c3nn4c(C)nnc4c4ccccc34)cc2)c1,IC50,HCT-116 [7],57.4 µg/mL
C=CCNC(=S)Nc1cccc(Nc2ccc(Nc3ccc(S(=O)(=O)NC(=N)N)cc3)nn2)c1,inhibition (INH),[1],40%
same,IC50,HCT-116 [2],30.3 µM
same,inhibition,[3],89.6%
O=c1c(CNc2ccccc2)cc(-c2ccccc2CO)nn1Cc1ccccc1,IC50,SK-MEL,4.2 µM
same,IC50,KB,2.3 µM
CNC(=O)c1cc(Oc2ccc(NC(=O)c3nn(-c4ccc(Cl)cc4)cc(C)c3=O)cc2)ccn1,Ratio IC50,A549 [8],3.4
same,IC50,A549 [9],0.37 µM
same,IC50,[10],0.00012 µM
COc1ccc(NC(=O)CSc2nnc(-c3ccccc3)c3ccccc23)cc1,IC50,ECa-109 cell line,8.13 µM
Cc1n[nH]c(=O)cc1Cc1cc2cc(C(C)C)ccc2o1,IC50,MCF7 [11],14.5 µM
same,IC50,P815,35 µM
Cc1ccc2nnc(C(=O)NNC(N)=S)c(N)c2c1,IC50,MCF7 [12],0.11 µM
same,IC50,MCF-12A,64.2 µM
same,IC50,[13],0.34 µM
CC1=Nc2c(nnc3ccc(C)cc23)C(=O)NN1,IC50,MCF7 [12],0.049 µM
same,IC50,[13],0.22 µM
O=c1ccc(-c2cccnc2)nn1CC1CN(c2ncc(-c3cnn(C4CCNCC4)c3)cn2)CCO1 (centres undefined),IC50,Hs746T,1.9 µM
same,IC50,[14],0.035 µM
O=C1Nc2ccc(Br)cc2/C1=N/Nc1nnc(-c2ccccc2)c2ccccc12,IC50,MDA-MB-231,12 µM
Cc1n[nH]c(=S)cc1Cc1cc2cc(Cl)ccc2o1,IC50,MDA-MB-468,11.5 µM
C=CC[Se]c1ccc(S(=O)(=O)CCC)nn1,IC50,MCF7 [15],33.8 µM
same,IC50,Hep 3B2 [16],30.7 µM
same,Activity,MCF7 [17],9.28%
same,Activity,Hep 3B2 [18],5.46%
CC(=O)c1ccc(-c2ccc(=O)n(Cc3nc(-c4ncccn4)no3)n2)s1,inhibition,Homo sapiens,19%
same,inhibition,[19],17%
O=C1Nc2ccc(Cl)cc2/C1=N/Nc1nnc(-c2ccccc2)c2ccccc12,IC50,MDA-MB-231,12 µM
CCc1ccc2oc(Cc3cc(=O)[nH]nc3C)cc2c1,IC50,MCF7 [11],14.5 µM
same,IC50,P815,35 µM
COc1ccc(-c2cc(Cc3ccc(Cl)cc3)c(=O)[nH]n2)cc1,IC50,MCF7 [4],> 37 µM
same,IC50,HepG2 [5],14.8 µM
CC(=O)C(=NNc1ccc(Nc2nnc(-c3ccc(C)c(C)c3)cc2-c2c(-c3ccccc3)[nH]c3ccccc23)cc1)C(C)=O,IC50,MCF7 [20],2.2 µg/mL
Cc1n[nH]c(=O)cc1Cc1cc2cc(Cl)cc(Br)c2o1,IC50,MDA-MB-468,3.1 µM
O=C1Nc2ccccc2/C1=N/Nc1nnc(-c2ccccc2)c2ccccc12,IC50,MDA-MB-231,12 µM
Sc1nnc(Cc2ccccc2)c2ccccc12,IC50,PC-3,8.6 µg/mL
COC(=O)CNC(=O)Cn1nc(Cc2ccccc2)c2ccccc2c1=O,IC50,HepG2 [21],5.7 µg/mL
Cc1ccc2oc(Cc3cc(=O)[nH]nc3C)cc2c1,IC50,MCF7 [11],14.5 µM
same,IC50,P815,35 µM
O=C1Nc2ccccc2/C1=N/Nc1nnc(-c2ccc(Cl)cc2)c2ccccc12,IC50,MDA-MB-231,12 µM
O=C(Nc1ccc(Cl)c(C(F)(F)F)c1)Nc1nnc2ccc(N3CCOCC3)nn12,Activity,[22],3%
